Values quoted from earlier work in paper PMC5629142 (Drugs in R&D, 2017).

Conditions: TBZ co-administered with CYP2D6 inhibitors

increase in overall exposure: 3 fold
SMILES: COc1cc2c(cc1OC)[C@@H]1C[C@H](O)[C@@H](CC(C)C)CN1CC2 [α-HTBZ]
